Literature values as cited in patent US12683165B2, “Positive electrode additive for lithium secondary battery, positive electrode active material comprising same, positive electrode, and lithium secondary battery” (LG ENERGY SOLUTION, LTD., priority 2021, dated 2026).

Conditions: ether-based or carbonate-based solvent of a lithium-sulfur secondary battery electrolyte solution

dissolution in electrolyte solution solvent: tends to be dissolved
Compound: O=c1[nH]c(=O)c2c3ccc4cccc5c6cccc7ccc(c12)c(c76)c3c45 [BPI, benzo[ghi]peryleneimide]
